{"source": "patent US20150209373A1", "about": "“Progesterone Receptor Modulators for Use in Preventing or Treating Androgen Mediated Diseases” (PregLem SA, priority 2012, published 2015)", "key": {"[1]": {"test_system": "mice", "assay": "4 week oral toxicity study with UPA in mice - organ weights", "type": "in vivo", "settings": "4 week oral toxicity study in mice", "method": "(§1) During a 104 week rat carcinogenicity assay, we observed seminal vesicles and prostate contraction at dose-levels of 1 (seminal vesicles, only), 3 and 10 mg/kg/day (PGL09-005). Similarly, during 4 and 26 week assays in the mouse, decreases in epididymidis weights were recorded at dose-levels ranging between 15 and 300 mg/kg/day (Tables 1 and 2). Ulipristal Acetate Anti-Androgenic Effect in a 4 Week Oral Toxicity Study in Mice"}, "[2]": {"test_system": "mice", "assay": "26 week oral carcinogenicity study with UPA in mice - organ weights", "type": "in vivo", "settings": "26 week oral carcinogenicity study in mice", "method": "as §1, with “a 26” for “a 4”, “Oral Carcinogenicity” for “Oral Toxicity”"}, "[3]": {"test_system": "rat", "assay": "104 week rat carcinogenicity assay (PGL09-005)", "type": "in vivo", "settings": "104 weeks", "method": "as §1, with “2).” for “2). Ulipristal Acetate Anti-Androgenic Effect in a 4 Week Oral Toxicity Study in Mice”"}, "[4]": {"molecular_target": "T1, progesterone receptor (Homo sapiens, UniProt P06401)", "T1 sequence (P06401 1-933)": "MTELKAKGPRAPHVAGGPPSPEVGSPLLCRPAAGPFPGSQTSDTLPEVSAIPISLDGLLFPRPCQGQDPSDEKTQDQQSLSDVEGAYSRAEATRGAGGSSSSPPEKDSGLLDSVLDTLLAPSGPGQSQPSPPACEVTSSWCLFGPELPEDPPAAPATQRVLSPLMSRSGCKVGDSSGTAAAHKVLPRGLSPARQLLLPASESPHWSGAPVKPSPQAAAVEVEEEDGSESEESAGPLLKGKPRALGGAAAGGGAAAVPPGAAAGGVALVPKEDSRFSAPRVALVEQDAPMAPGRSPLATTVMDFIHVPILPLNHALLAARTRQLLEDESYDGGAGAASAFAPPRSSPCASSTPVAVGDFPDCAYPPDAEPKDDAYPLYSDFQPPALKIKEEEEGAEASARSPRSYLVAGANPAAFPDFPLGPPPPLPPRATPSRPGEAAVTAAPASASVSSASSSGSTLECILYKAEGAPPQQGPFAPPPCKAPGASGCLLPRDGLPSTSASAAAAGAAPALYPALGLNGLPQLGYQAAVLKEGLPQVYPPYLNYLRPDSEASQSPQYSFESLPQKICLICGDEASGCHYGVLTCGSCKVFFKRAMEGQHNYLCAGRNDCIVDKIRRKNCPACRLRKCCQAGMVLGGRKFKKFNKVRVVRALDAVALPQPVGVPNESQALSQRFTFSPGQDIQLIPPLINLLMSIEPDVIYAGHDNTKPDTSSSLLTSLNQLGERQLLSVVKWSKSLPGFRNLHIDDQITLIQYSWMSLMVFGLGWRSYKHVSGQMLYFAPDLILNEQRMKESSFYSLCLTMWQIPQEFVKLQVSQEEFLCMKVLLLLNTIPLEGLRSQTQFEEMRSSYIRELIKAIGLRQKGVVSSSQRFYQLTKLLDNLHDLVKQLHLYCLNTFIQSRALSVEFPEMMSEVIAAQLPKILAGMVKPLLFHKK", "assay": "in vitro nuclear receptor selectivity profile - progesterone receptor", "type": "binding"}, "[5]": {"molecular_target": "T2, glucocorticoid receptor (Homo sapiens, UniProt P04150)", "T2 sequence (P04150 1-777)": "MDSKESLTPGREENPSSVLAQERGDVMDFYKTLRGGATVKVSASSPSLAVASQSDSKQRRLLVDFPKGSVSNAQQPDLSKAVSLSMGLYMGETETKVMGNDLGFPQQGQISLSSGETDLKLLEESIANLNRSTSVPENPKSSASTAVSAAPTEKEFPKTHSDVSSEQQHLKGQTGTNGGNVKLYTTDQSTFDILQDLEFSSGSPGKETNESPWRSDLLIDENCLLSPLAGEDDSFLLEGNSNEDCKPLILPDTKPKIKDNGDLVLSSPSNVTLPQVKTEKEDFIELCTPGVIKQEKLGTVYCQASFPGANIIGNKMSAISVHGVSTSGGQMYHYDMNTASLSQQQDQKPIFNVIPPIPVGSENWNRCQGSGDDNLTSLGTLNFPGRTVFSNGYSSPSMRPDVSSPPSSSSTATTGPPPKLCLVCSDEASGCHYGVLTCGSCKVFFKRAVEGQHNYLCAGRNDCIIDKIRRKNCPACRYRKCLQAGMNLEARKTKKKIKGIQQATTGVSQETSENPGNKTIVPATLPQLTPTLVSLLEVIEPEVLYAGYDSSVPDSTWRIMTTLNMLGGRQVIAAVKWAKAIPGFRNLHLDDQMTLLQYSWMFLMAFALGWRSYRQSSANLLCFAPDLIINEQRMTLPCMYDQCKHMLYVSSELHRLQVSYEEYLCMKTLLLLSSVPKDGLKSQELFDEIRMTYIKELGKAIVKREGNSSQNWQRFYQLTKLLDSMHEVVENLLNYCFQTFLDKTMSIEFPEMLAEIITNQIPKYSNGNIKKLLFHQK", "assay": "in vitro nuclear receptor selectivity profile - glucocorticoid receptor", "type": "binding"}, "[6]": {"molecular_target": "T3, androgen receptor (Homo sapiens, UniProt P10275)", "T3 sequence (P10275 1-920)": "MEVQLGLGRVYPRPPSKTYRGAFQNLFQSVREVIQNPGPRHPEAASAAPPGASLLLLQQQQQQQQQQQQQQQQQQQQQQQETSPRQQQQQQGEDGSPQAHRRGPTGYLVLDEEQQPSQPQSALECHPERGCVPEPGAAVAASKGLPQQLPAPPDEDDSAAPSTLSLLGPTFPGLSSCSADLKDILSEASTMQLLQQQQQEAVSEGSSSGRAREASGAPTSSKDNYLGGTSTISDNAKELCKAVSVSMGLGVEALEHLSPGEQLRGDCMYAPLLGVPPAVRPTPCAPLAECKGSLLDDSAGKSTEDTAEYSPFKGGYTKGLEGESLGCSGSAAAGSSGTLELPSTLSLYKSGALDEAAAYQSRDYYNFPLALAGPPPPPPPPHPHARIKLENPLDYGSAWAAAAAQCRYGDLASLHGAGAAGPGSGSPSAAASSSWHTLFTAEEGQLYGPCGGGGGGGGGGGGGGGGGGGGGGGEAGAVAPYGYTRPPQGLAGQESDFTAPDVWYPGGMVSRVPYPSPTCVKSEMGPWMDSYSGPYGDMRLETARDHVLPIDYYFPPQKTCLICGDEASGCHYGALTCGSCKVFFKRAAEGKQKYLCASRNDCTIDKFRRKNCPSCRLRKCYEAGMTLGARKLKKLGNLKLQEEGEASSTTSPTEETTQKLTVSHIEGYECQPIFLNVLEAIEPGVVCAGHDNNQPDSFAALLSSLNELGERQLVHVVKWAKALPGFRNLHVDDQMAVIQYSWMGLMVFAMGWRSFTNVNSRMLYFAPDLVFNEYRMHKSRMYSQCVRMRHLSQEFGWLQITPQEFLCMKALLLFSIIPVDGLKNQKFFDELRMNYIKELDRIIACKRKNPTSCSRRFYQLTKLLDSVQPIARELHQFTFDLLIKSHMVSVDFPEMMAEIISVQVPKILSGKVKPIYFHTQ", "assay": "in vitro nuclear receptor selectivity profile - androgen receptor", "type": "binding"}, "[7]": {"test_system": "oestrogen receptors", "assay": "in vitro nuclear receptor selectivity profile - oestrogen receptors", "type": "binding"}, "[8]": {"assay": "in vivo activity profile"}}}
{"smiles": "CC(=O)O[C@]1(C(C)=O)CC[C@H]2[C@@H]3CCC4=CC(=O)CCC4=C3[C@@H](c3ccc(N(C)C)cc3)C[C@@]21C", "note": "[UPA, Ulipristal acetate]", "values": [{"measurement": "interpretation of decrease in organ weight", "setting": "[1]", "result": "suggestive of anti-androgenic like effects"}, {"measurement": "interpretation of decrease in organ weight", "setting": "[2]", "result": "suggestive of anti-androgenic like effects"}, {"measurement": "seminal vesicles finding", "setting": "[3]; dose-levels of 1, 3 and 10 mg/kg/day", "result": "contraction"}, {"measurement": "prostate finding", "setting": "[3]; dose-levels of 3 and 10 mg/kg/day (not at 1 mg/kg/day)", "result": "contraction"}, {"measurement": "affinity for the progesterone receptor", "setting": "[4]", "result": "high affinity"}, {"measurement": "affinity for the glucocorticoid receptor", "setting": "[5]", "result": "high affinity"}, {"measurement": "affinity for the androgen receptor", "setting": "[6]", "result": "much lower affinity"}, {"measurement": "affinity for the oestrogen receptors", "setting": "[7]", "result": "no affinity"}, {"measurement": "in vivo anti-androgenic activity", "setting": "[8]", "result": "anti-androgenic effects"}, {"measurement": "in vivo anti-glucocorticoid activity", "setting": "[8]", "result": "no significant anti-glucocorticoid effects"}]}
